According to paper PMC5787524, “Discovery of a FLT3 inhibitor LDD1937 as an anti-leukemic agent for acute myeloid leukemia” (Oncotarget, 2017):
Values joined by “and” are separate entries in the source; they are usually repeats but may differ in a detail not shown here. Equal values may be shown once. Read-outs that look alike come from different tables or passages of the source.

What was measured:
MV-4-11 cells = assay: Annexin V / propidium iodide flow cytometry (apoptosis); format: cell-based, human; details: 10 nM, 24 h
Procedure: For Annexin V staining, the Alexa Flour® 488 Annexin V/ Dead Cell Apoptosis Kit (ThermoFisher, USA) was used. Cells were seeded in 6-well plates (1 × 10^6 cells per well) and treated with compounds for 24 h. The cells were stained with Annexin V and propidium iodide (PI) according to the manufacturer’s instruction. Then, the cells were subjected to flow cytometry using an Accuri C6 flow cytometer (BD Bio-sciences, San Jose, CA, USA). The data were analyzed with the BD Accuri C6 software.

[1] = tested on: cyclin D1 level in MV-4-11 cells; assay: Cyclin D1 western blot; format: cell-based, human; details: MV-4-11, 16 h, from as low as 10 nM
Procedure: Cells were lysed in SDS Lysis buffer (12 mM Tris-Cl, pH 6.8, 5% glycerol, and 0.4% SDS), and the protein concentrations were measured with the SMART BCA Protein Assay kit (iNtRON Biotechnology, Korea). The proteins were resolved with SDS-polyacrylamide gel electrophoresis followed by transfer to PVDF membranes (Millipore, Billerica, MA, USA) and incubated overnight with the appropriate antibodies. The antibodies used were as follows: phospho-STAT5 (p-STAT5; rabbit polyclonal IgG; #9351, 1:1,000), cyclin D1 (rabbit polyclonal IgG; #2922, 1:1,000), and PARP (rabbit polyclonal IgG; #9542, 1:1,000) from Cell Signaling Technology (Danver, MA, USA), STAT5 (rabbit polyclonal IgG; #sc-835, 1:1,000) from Santa Cruz (Santa Cruz, CA, USA), and β-actin (mouse monoclonal IgG; # A5441, 1:5000) from Sigma-Aldrich. Goat anti-rabbit IgG (#111-035-003; 1;5,000) and anti-mouse IgG (#115-035-033; 1:5,000) secondary antibodies were obtained from Jackson ImmunoResearch Laboratories, Inc. (West Grove, PA, USA).

[2] = Pharmacokinetics in mice (intravenous and oral); format: in vivo, ICR mice; details: for AUC: read-out: AUC (converted); for half-life: read-out: Terminal half-life
Procedure: The protocols for the animal studies were approved by the Institute of Laboratory Animal Resources of Dongguk University, Seoul, South Korea (IACUC-2015-055-1). Five-week-old male Imprinting Control Region (ICR) mice were purchased from the Charles River Company Korea (Orient, Seoul, South Korea). Upon arrival, the animals were randomized and housed four per cage under strictly controlled environmental conditions (22-25°C and 48-52% relative humidity) with a 12 h light/dark cycle at an intensity of 150 to 300 Lux. All mice were provided food and water ad libitum and were then maintained during this study. In the intravenous study of LDD1937, 10 mg/kg of LDD1937 (dissolved in distilled water at a concentration of 2 mg/ml) were intravenously injected into the mice through the tail vein. A blood sample of approximately 0.12 ml was collected by cardiac puncture. Additionally, in the oral study of LDD1937, 10 mg/kg of LDD1937 (dissolved in the same solution used in the intravenous study) were orally administered to the mice. The analysis of LDD1937 and LDD1940, a metabolite of LDD1937, in biological samples was done with LC-MS/MS using the Waters UPLC-XEVO TQ system (Waters Corporation, Milford, CT, USA). […]1940, and carbamazepine (an internal standard, IS) were ionized in the multiple reaction monitoring mode with an ESI interface for positive ions ([M+H]^+). The turbo ion-spray interface was operated at an ion capillary voltage of 3.0 kV with a desolvation gas flow of 650 l/h and a cone gas flow of 10 l/h at 350°C. […] Separation was done on a reverse-phase C18 column (BEH, […]; Waters, Ireland) with a mobile phase, distilled water containing 0.1% formic acid and acetonitrile, at 30°C. After measuring the concentrations of the LDD1937 and LDD1940, standard methods were used to calculate the pharmacokinetic parameters using a non-compartmental analysis (WinNonlin 2.1; […] Corp., Mountain View, CA, USA).

leukemic cells = assay: Differentiation of leukemic cells (Wright-Giemsa staining); format: cell-based; details: data not shown
[3] = LDD1937, mice, 10 mg/kg intravenous
[4] = male, ICR, mouse, plasma, LDD1937, mice, 10 mg/kg intravenous
[5] = male, ICR, mouse, plasma, LDD1937, mice, 10 mg/kg oral

For `COC(=O)c1ccc2c(c1)/C(=C1/Nc3ccccc3/C1=N\OCCN1CCNCC1)C(=O)N2.Cl.Cl` [LDD1937, methyl (2Z,3E)-2′-oxo-3-((2-(piperazin-1-yl)ethoxy)imino)-[2,3′-biindolinylidene]-5′-carboxylate dihydrochloride], the “cells in upper right quadrant (Annexin V+ and PI+, late apoptotic)” value (MV-4-11 cells) was 24.8%, the “cyclin D1 level” value [1] was “dose-dependent reduction of the cyclin D level” and the CLNR [2, 3] was 83.6 ± 9.81 mL/min/kg. The “GI24 h (total amount recovered from the gastrointestinal tract at 24 h)” value [2, 3] was 0.336 ± 0.0235 % of dose, the “Ae0–24 h (total amount excreted in 24-h urine)” value ([2]; LDD1937, mice, 10 mg/kg intravenous, 10 mg/kg) was 0.283 % of dose and 0.283 ± 0.0252 % of dose and the “Ae0–24 h” value ([2]; LDD1937, mice, 10 mg/kg oral) was 0.213 ± 0.0163 % of dose. For the same compound, the GI24 h ([2]; LDD1937, mice, 10 mg/kg oral, 10 mg/kg) was 1.67 % of dose and 1.67 ± 1.92 % of dose, the concentration at 10 h ([2]; male, ICR, mouse, plasma, 10 h after 10 mg/kg intravenous dosing, mice, read-out: plasma level) was 30 ng/mL and the MRT [2, 4] was 2.77 h. It also gave a clearance [2, 4] of 83.6 ± 9.81 mL/min/kg, an AUC [2, 4] of 2000 ng·h/mL and a half-life [2, 4] of 2.9 ± 0.47 h. For the same compound, the Vd ([2]; male, ICR, mouse, plasma, LDD1937, mice, 10 mg/kg intravenous, read-out: Vss) was 14.1 ± 4.31 L/kg, the bioavailability [2, 5] was 1.43% and the AUC [2, 5] was 29.8 ng·h/mL. It also gave a Cmax ([2]; male, ICR, mouse, plasma, LDD1937, mice, 10 mg/kg oral, read-out: Cmax) of 23.3 ± 26.2 ng/mL, a half-life [2, 5] of 1.72 ± 0.542 h and a Tmax ([2]; male, ICR, mouse, plasma, LDD1937, mice, 10 mg/kg oral, read-out: Tmax (converted)) of 0.5 h. For the same compound, the plasma concentration reached ([2]; single dose 10 mg/kg intravenous, mice) was 2700 ng/mL and the “differentiated cells (Wright-Giemsa staining)” value (leukemic cells) was “differentiated cells were not observed”.
